According to PubChem BioAssay (NCI):
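Following 48 hours of exposure in 96-well plates, responses at five concentrations were used to interpolate endpoints linearly. TGI is the concentration that stops growth completely.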

These compounds were tested on SNB-19 CNS (assay: NCI tumour cell line growth inhibition, 48 h).

Row | Structure (SMILES) | TGI [µM]
1 | COc1ccc(C(c2ccc(C(C)C)cc(OC)c2=O)c2ccc(C(C)C)cc(OC)c2=O)cc1 | 29.3

The compounds below were run on SK-OV-3 ovarian (assay: NCI tumour cell line growth inhibition, 48 h).

Row | Structure (SMILES) | TGI [µM]
2 | CCOC(=O)C1C(c2ccccc2)=C(c2ccccc2)C(c2ccccc2)=C1c1ccccc1 | 49
3 | Cc1c(NC(=O)/C(=N/NC(=S)N=N)C2C(=O)CC(C)(C)CC2=O)c(O)c2ccccc2c1O | 36.9
4 | COC(=O)CCC1=NOC(CC2CC(CCC(=O)OC)=NO2)C1 (stereo unspecified) | > 100
5 | CC(C)=CCCC(C)[C@H]1CC(O)C2(C)C3=CCC4C(C)(C)[C@@H](O)CC[C@]4(C)C3=CC[C@]12C (stereo partly specified) | 24.8
6 | COc1ccc(C(c2ccc(C(C)C)cc(OC)c2=O)c2ccc(C(C)C)cc(OC)c2=O)cc1 | 32.3

These compounds were tested on SF-539 CNS (assay: NCI tumour cell line growth inhibition, 48 h).

Row | Structure (SMILES) | TGI [µM]
7 | CCOC(=O)C1C(c2ccccc2)=C(c2ccccc2)C(c2ccccc2)=C1c1ccccc1 | 91
8 | Cc1c(NC(=O)/C(=N/NC(=S)N=N)C2C(=O)CC(C)(C)CC2=O)c(O)c2ccccc2c1O | 12.4
9 | COC(=O)CCC1=NOC(CC2CC(CCC(=O)OC)=NO2)C1 (stereo unspecified) | > 100
10 | CC(C)=CCCC(C)[C@H]1CC(O)C2(C)C3=CCC4C(C)(C)[C@@H](O)CC[C@]4(C)C3=CC[C@]12C (stereo partly specified) | 6.58
11 | COc1ccc(C(c2ccc(C(C)C)cc(OC)c2=O)c2ccc(C(C)C)cc(OC)c2=O)cc1 | 30.9

The compounds below were run on OVCAR-5 ovarian (assay: NCI tumour cell line growth inhibition, 48 h).

Row | Structure (SMILES) | TGI [µM]
12 | CCOC(=O)C1C(c2ccccc2)=C(c2ccccc2)C(c2ccccc2)=C1c1ccccc1 | > 100
13 | Cc1c(NC(=O)/C(=N/NC(=S)N=N)C2C(=O)CC(C)(C)CC2=O)c(O)c2ccccc2c1O | 36.9
14 | COC(=O)CCC1=NOC(CC2CC(CCC(=O)OC)=NO2)C1 (stereo unspecified) | > 100
15 | CC(C)=CCCC(C)[C@H]1CC(O)C2(C)C3=CCC4C(C)(C)[C@@H](O)CC[C@]4(C)C3=CC[C@]12C (stereo partly specified) | > 100
16 | COc1ccc(C(c2ccc(C(C)C)cc(OC)c2=O)c2ccc(C(C)C)cc(OC)c2=O)cc1 | 34.3

The compounds below were run on SW-620 colon (assay: NCI tumour cell line growth inhibition, 48 h).

Row | Structure (SMILES) | TGI [µM]
17 | CCOC(=O)C1C(c2ccccc2)=C(c2ccccc2)C(c2ccccc2)=C1c1ccccc1 | > 100
18 | Cc1c(NC(=O)/C(=N/NC(=S)N=N)C2C(=O)CC(C)(C)CC2=O)c(O)c2ccccc2c1O | 22.3
19 | COC(=O)CCC1=NOC(CC2CC(CCC(=O)OC)=NO2)C1 (stereo unspecified) | > 100
20 | CC(C)=CCCC(C)[C@H]1CC(O)C2(C)C3=CCC4C(C)(C)[C@@H](O)CC[C@]4(C)C3=CC[C@]12C (stereo partly specified) | 14.7
21 | COc1ccc(C(c2ccc(C(C)C)cc(OC)c2=O)c2ccc(C(C)C)cc(OC)c2=O)cc1 | 28.8

The compounds below were run on OVCAR-8 ovarian (assay: NCI tumour cell line growth inhibition, 48 h).

Row | Structure (SMILES) | TGI [µM]
22 | CCOC(=O)C1C(c2ccccc2)=C(c2ccccc2)C(c2ccccc2)=C1c1ccccc1 | > 72.7
23 | Cc1c(NC(=O)/C(=N/NC(=S)N=N)C2C(=O)CC(C)(C)CC2=O)c(O)c2ccccc2c1O | 17.6
24 | COC(=O)CCC1=NOC(CC2CC(CCC(=O)OC)=NO2)C1 (stereo unspecified) | > 100
25 | CC(C)=CCCC(C)[C@H]1CC(O)C2(C)C3=CCC4C(C)(C)[C@@H](O)CC[C@]4(C)C3=CC[C@]12C (stereo partly specified) | 3.79
26 | COc1ccc(C(c2ccc(C(C)C)cc(OC)c2=O)c2ccc(C(C)C)cc(OC)c2=O)cc1 | 32.5

Each compound was assayed on OVCAR-4 ovarian (assay: NCI tumour cell line growth inhibition, 48 h).

Row | Structure (SMILES) | TGI [µM]
27 | CCOC(=O)C1C(c2ccccc2)=C(c2ccccc2)C(c2ccccc2)=C1c1ccccc1 | > 100
28 | Cc1c(NC(=O)/C(=N/NC(=S)N=N)C2C(=O)CC(C)(C)CC2=O)c(O)c2ccccc2c1O | 27
29 | COC(=O)CCC1=NOC(CC2CC(CCC(=O)OC)=NO2)C1 (stereo unspecified) | > 100
30 | CC(C)=CCCC(C)[C@H]1CC(O)C2(C)C3=CCC4C(C)(C)[C@@H](O)CC[C@]4(C)C3=CC[C@]12C (stereo partly specified) | 6.48
31 | COc1ccc(C(c2ccc(C(C)C)cc(OC)c2=O)c2ccc(C(C)C)cc(OC)c2=O)cc1 | 24.9

What follows are compounds tested on MALME-3M melanoma (assay: NCI tumour cell line growth inhibition, 48 h).

Row | Structure (SMILES) | TGI [µM]
32 | CCOC(=O)C1C(c2ccccc2)=C(c2ccccc2)C(c2ccccc2)=C1c1ccccc1 | > 91.7
33 | Cc1c(NC(=O)/C(=N/NC(=S)N=N)C2C(=O)CC(C)(C)CC2=O)c(O)c2ccccc2c1O | 29.6
34 | COC(=O)CCC1=NOC(CC2CC(CCC(=O)OC)=NO2)C1 (stereo unspecified) | > 100
35 | CC(C)=CCCC(C)[C@H]1CC(O)C2(C)C3=CCC4C(C)(C)[C@@H](O)CC[C@]4(C)C3=CC[C@]12C (stereo partly specified) | 34.2
36 | COc1ccc(C(c2ccc(C(C)C)cc(OC)c2=O)c2ccc(C(C)C)cc(OC)c2=O)cc1 | 30.6

These compounds were tested on A549 NSCLC (assay: NCI tumour cell line growth inhibition, 48 h).

Row | Structure (SMILES) | TGI [µM]
37 | CCOC(=O)C1C(c2ccccc2)=C(c2ccccc2)C(c2ccccc2)=C1c1ccccc1 | 97.4
38 | Cc1c(NC(=O)/C(=N/NC(=S)N=N)C2C(=O)CC(C)(C)CC2=O)c(O)c2ccccc2c1O | 21.7
39 | COC(=O)CCC1=NOC(CC2CC(CCC(=O)OC)=NO2)C1 (stereo unspecified) | > 100
40 | CC(C)=CCCC(C)[C@H]1CC(O)C2(C)C3=CCC4C(C)(C)[C@@H](O)CC[C@]4(C)C3=CC[C@]12C (stereo partly specified) | 10.6
41 | COc1ccc(C(c2ccc(C(C)C)cc(OC)c2=O)c2ccc(C(C)C)cc(OC)c2=O)cc1 | 24.6

These compounds were tested on HT29 colon (assay: NCI tumour cell line growth inhibition, 48 h).

Row | Structure (SMILES) | TGI [µM]
42 | CCOC(=O)C1C(c2ccccc2)=C(c2ccccc2)C(c2ccccc2)=C1c1ccccc1 | > 100
43 | Cc1c(NC(=O)/C(=N/NC(=S)N=N)C2C(=O)CC(C)(C)CC2=O)c(O)c2ccccc2c1O | 33.6
44 | COC(=O)CCC1=NOC(CC2CC(CCC(=O)OC)=NO2)C1 (stereo unspecified) | > 100
45 | CC(C)=CCCC(C)[C@H]1CC(O)C2(C)C3=CCC4C(C)(C)[C@@H](O)CC[C@]4(C)C3=CC[C@]12C (stereo partly specified) | 14.6
46 | COc1ccc(C(c2ccc(C(C)C)cc(OC)c2=O)c2ccc(C(C)C)cc(OC)c2=O)cc1 | 22.7

Each compound was assayed on SN12C renal (assay: NCI tumour cell line growth inhibition, 48 h).

Row | Structure (SMILES) | TGI [µM]
47 | CCOC(=O)C1C(c2ccccc2)=C(c2ccccc2)C(c2ccccc2)=C1c1ccccc1 | > 83.6
48 | Cc1c(NC(=O)/C(=N/NC(=S)N=N)C2C(=O)CC(C)(C)CC2=O)c(O)c2ccccc2c1O | 20.1
49 | COC(=O)CCC1=NOC(CC2CC(CCC(=O)OC)=NO2)C1 (stereo unspecified) | > 100
50 | CC(C)=CCCC(C)[C@H]1CC(O)C2(C)C3=CCC4C(C)(C)[C@@H](O)CC[C@]4(C)C3=CC[C@]12C (stereo partly specified) | 12.3
51 | COc1ccc(C(c2ccc(C(C)C)cc(OC)c2=O)c2ccc(C(C)C)cc(OC)c2=O)cc1 | 30.3

Each compound was assayed on SK-MEL-28 melanoma (assay: NCI tumour cell line growth inhibition, 48 h).

Row | Structure (SMILES) | TGI [µM]
52 | CCOC(=O)C1C(c2ccccc2)=C(c2ccccc2)C(c2ccccc2)=C1c1ccccc1 | > 100
53 | Cc1c(NC(=O)/C(=N/NC(=S)N=N)C2C(=O)CC(C)(C)CC2=O)c(O)c2ccccc2c1O | 26.4

What follows are compounds tested on UACC-62 melanoma (assay: NCI tumour cell line growth inhibition, 48 h).

Row | Structure (SMILES) | TGI [µM]
54 | CCOC(=O)C1C(c2ccccc2)=C(c2ccccc2)C(c2ccccc2)=C1c1ccccc1 | 60.9
55 | Cc1c(NC(=O)/C(=N/NC(=S)N=N)C2C(=O)CC(C)(C)CC2=O)c(O)c2ccccc2c1O | 6
56 | COC(=O)CCC1=NOC(CC2CC(CCC(=O)OC)=NO2)C1 (stereo unspecified) | > 100
57 | CC(C)=CCCC(C)[C@H]1CC(O)C2(C)C3=CCC4C(C)(C)[C@@H](O)CC[C@]4(C)C3=CC[C@]12C (stereo partly specified) | 15.1
58 | COc1ccc(C(c2ccc(C(C)C)cc(OC)c2=O)c2ccc(C(C)C)cc(OC)c2=O)cc1 | 28.1

What follows are compounds tested on NCI-H460 lung (assay: NCI tumour cell line growth inhibition, 48 h).

Row | Structure (SMILES) | TGI [µM]
59 | CCOC(=O)C1C(c2ccccc2)=C(c2ccccc2)C(c2ccccc2)=C1c1ccccc1 | > 100
60 | Cc1c(NC(=O)/C(=N/NC(=S)N=N)C2C(=O)CC(C)(C)CC2=O)c(O)c2ccccc2c1O | 64.9
61 | COC(=O)CCC1=NOC(CC2CC(CCC(=O)OC)=NO2)C1 (stereo unspecified) | > 100
62 | CC(C)=CCCC(C)[C@H]1CC(O)C2(C)C3=CCC4C(C)(C)[C@@H](O)CC[C@]4(C)C3=CC[C@]12C (stereo partly specified) | 4.92
63 | COc1ccc(C(c2ccc(C(C)C)cc(OC)c2=O)c2ccc(C(C)C)cc(OC)c2=O)cc1 | 30

These compounds were tested on KM20L2 colon (assay: NCI tumour cell line growth inhibition, 48 h).

Row | Structure (SMILES) | TGI [µM]
64 | CCOC(=O)C1C(c2ccccc2)=C(c2ccccc2)C(c2ccccc2)=C1c1ccccc1 | > 100
65 | Cc1c(NC(=O)/C(=N/NC(=S)N=N)C2C(=O)CC(C)(C)CC2=O)c(O)c2ccccc2c1O | 40.4
66 | COC(=O)CCC1=NOC(CC2CC(CCC(=O)OC)=NO2)C1 (stereo unspecified) | > 100
67 | CC(C)=CCCC(C)[C@H]1CC(O)C2(C)C3=CCC4C(C)(C)[C@@H](O)CC[C@]4(C)C3=CC[C@]12C (stereo partly specified) | 93.6
68 | COc1ccc(C(c2ccc(C(C)C)cc(OC)c2=O)c2ccc(C(C)C)cc(OC)c2=O)cc1 | 27

These compounds were tested on ACHN renal (assay: NCI tumour cell line growth inhibition, 48 h).

Row | Structure (SMILES) | TGI [µM]
69 | CCOC(=O)C1C(c2ccccc2)=C(c2ccccc2)C(c2ccccc2)=C1c1ccccc1 | > 82.2
70 | Cc1c(NC(=O)/C(=N/NC(=S)N=N)C2C(=O)CC(C)(C)CC2=O)c(O)c2ccccc2c1O | 26.8

These compounds were tested on MOLT-4 leukemia (assay: NCI tumour cell line growth inhibition, 48 h).

Row | Structure (SMILES) | TGI [µM]
71 | CCOC(=O)C1C(c2ccccc2)=C(c2ccccc2)C(c2ccccc2)=C1c1ccccc1 | > 100
